Test results as given in US3975384A, “2,4,5,6-Tetrasubstituted pyrimidines and salts thereof” (Boehringer Ingelheim GmbH, priority 1973, dated 1976).
Like-named read-outs stand apart in the source and are kept apart here.

How the values were obtained:
[1] = test system: platelet adhesiveness in human blood; assay: Morris retention test, inhibition of platelet adhesiveness; assay type: cell-based; conditions: 10 min; for inhibition at 10 µM: 10 μ mols/liter, 10 minutes at 37°C, glass beads
Procedure: 2. Determination of inhibiting effect on platelet adhesiveness in human blood by the so-called retention test according to Morris (E. Deutsch, E. Gerlach and K. Moser: 1. Internationales Symposium uber Stoffwechsel und Membranpermeabilitat von Erythrozyten and Thrombozyten, Vienna, 1969; Georg Thieme Verlag, Stuttgart, Germany).
To determine the inhibiting action of the test compound on thrombocyte aggregation, 1 ml of human blood was pipetted into each of a plurality of small test tubes, and the test compound was added to give a final concentration of 5 × 10^-^5 mol/liter or 1 × 10^^-5 mol/liter. The tubes were incubated for 10 minutes at 37°C. 1 gm of glass beads (for gas-chromatography) was added to half of the tubes. Then, the stoppered tubes were attached to a disc mounted for rotation about a horizontal axis and rotated for 1 minute. By this means good contact was obtained between the glass beads and the blood. The tubes were then left standing at room temperature for another hour, after which time a satisfactory sedimentation of erythrocytes had taken place. 0.01 ml of the supernatant plasma was removed, diluted 1:8000 with celloscope solution, and the platelet count was read in a celloscope. The percentage reduction of the stickiness due to the presence of the test compound, compared to the tubes containing no glass beads, was measured (average values of 4- 6 tests).

[2] = test system: platelet aggregation in human blood plasma; assay: Born and Cross test, ADP-induced platelet aggregation; assay type: cell-based; conditions: 10 min, human platelet-rich plasma, 10 minutes at 37°C, read-out: Born and Cross test (ADP) EC50 (concentration which causes a 50% alteration of the "optical density")
Procedure: 1. Determination of inhibiting effect upon platelet aggregation in human blood plasma by the method of Born and cross, J. Physiol. 170, 397 (1964):
The platelet aggregation was measured in the platelet-rich plasma of normal, healthy human donors. The rate of decline of the optical density of the platelet suspension was measured and recorded photometrically after the addition of adenosine diphosphate (ADP). From the angle of inclination of the density curve, the speed of aggregation was concluded. The optical density was taken as the point on the curve where most light was transmitted. The smallest possible doses of ADP were chosen, but enough to result in irreversible aggregation. The plasma was incubated at 37°C for 10 minutes with varying quantities of the test compound before ADP was added.

[3] = Acute toxicity (LD50) in mice; conditions: mouse, in vivo, observation time 14 days
Procedure: The acute toxicity of the test compounds was determined in mice (observation time: 14 days). The LD50 was calculated from the percentage of animals which died within the observation time after administration, i.v. or p.o., of varying doses [see J. Pharmacol. exper. Therap. 96, 99 (1949)].

[4] = Hygroscopicity remark on acid addition salt; assay type: physicochemical; conditions: printed beside m.p. of the salt

Structure (SMILES) | inhibition at 10 µM [1] [%] | IC50 [2] [nM] | LD50 at 336 h ([3]; po, read-out: LD50 p.o.) [mg/kg] | LD50 at 336 h ([3]; iv, read-out: LD50 i.v.) [mg/kg] | hygroscopicity [4] | inhibition at 30 µM ([1]; Concentration: 30μ mols/liter (footnote +)) [%]
CSc1nc(N2CCN(C=O)CC2)nc(N2CC[S+]([O-])CC2)c1[N+](=O)[O-] [G, 6-methylthio-5-nitro-4-(1-oxido-thiomorpholino)-2-(N'-formyl-piperazino)-pyrimidine] | 2 | 50000 | > 1000 | – | – | –
CCC(C)Oc1nc(N2CCNCC2)nc(N2CCS(=O)(=O)CC2)c1[N+](=O)[O-] (stereo not shown) [F, 6-sec.Butoxy-4-(1,1-dioxido-thiomorpholino)-5-nitro-2-piperazino-pyrimidine] | 61 | 850 | 1500 | 150 | – | –
CCOc1nc(N2CCNCC2)nc(N2CC[S+]([O-])CC2)c1[N+](=O)[O-] [D, 6-ethoxy-5-nitro-4-(1-oxido-thiomorpholino)-2-piperazino-pyrimidine] | 100 | 25 | 600 | 150 | – | –
CC(C)Oc1nc(N2CCNCC2)nc(N2CC[S+]([O-])CC2)c1[N+](=O)[O-] [E, 5-nitro-4-(1-oxido-thiomorpholino)-2-piperazino-6-isopropoxy-pyrimidine] | 69 | 200 | 500 | 170 | – | –
CCOc1nc(N2CCNCC2)nc(N2CC[S+]([O-])CC2)c1[N+](=O)[O-] [Fumarate, 6-Ethoxy-5-nitro-4-(1-oxido-thiomorpholino)-2-piperazino-pyrimidine] | – | – | – | – | hydroscopic | –
Cc1nc(N2CCNCC2)nc(N2CC[S+]([O-])CC2)c1[N+](=O)[O-] [A, 6-methyl-5-nitro-2-piperazino-4-(1-oxido-thiomorpholino)-pyrimidine] | 92 | 12 | 600 | 160 | – | –
CC(=O)CC(=O)N1CCN(c2nc(C)c([N+](=O)[O-])c(N3CC[S+]([O-])CC3)n2)CC1 [H, 6-methyl-5-nitro-4-(1-oxido-thiomorpholino)-2-(N'-acetoacetyl-piperazino)-pyrimidine] | – | 100000 | > 1000 | – | – | 11
N#Cc1nc(N2CCNCC2)nc(N2CC[S+]([O-])CC2)c1Cl [C, 5-chloro-6-cyano-2-piperazino-4-(1-oxido-thiomorpholino)-pyrimidine] | 92 | 130 | 836 | 101 | – | –
Cc1nc(N2CCNCC2)nc(N2CCSCC2)c1[N+](=O)[O-] [B, 6-methyl-5-nitro-2-piperazino-4-thiomorpholino-pyrimidine] | 66 | 3000 | 620 | 70 | – | –
